According to ChEMBL document CHEMBL4699487, “Discovery of ONO-8590580: A novel, potent and selective GABA α negative allosteric modulator for the treatment of cognitive disorders” (Bioorg Med Chem Lett, 2020):

Key:
[1] = Cmax in rat at 3 mg/kg, po; assay type: ADME, organism-based; design: route oral, dose 3 mg/kg; details: in vivo
[2] = Cmax in rat at […], iv; assay type: ADME, organism-based; design: route intravenous, dose 0.44 mg/kg; details: in vivo
[3] = Apparent permeability in MDCK-MDR1 cells; assay type: ADME, cell-based, Canis lupus familiaris; details: dog
[4] = Oral bioavailability in rat at 3 mg/kg; assay type: ADME, organism-based; details: in vivo
[5] = AUC infinity in rat at 3 mg/kg, po; assay type: ADME, organism-based; design: time infinity, route oral, dose 3 mg/kg; details: in vivo
[6] = Volume of distribution at steady state in rat at […], iv; assay type: ADME, organism-based; details: in vivo, dose 0.44 mg/kg, read-out: Vdss
[7] = AUC infinity in rat at […], iv; assay type: ADME, organism-based; design: route intravenous, time infinity, dose 0.44 mg/kg; details: in vivo

Cc1c(F)c(Nc2ccc(-c3cn(C)cn3)cn2)cc2c1ncn2CC1CC1
Cmax [1]: 520 ng/mL
Cmax [2]: 278 ng/mL
Papp [3]: 47 ×10⁻⁶ cm/s
bioavailability [4]: 65%
AUC(0-inf) [5]: 1780 ng·h/mL
Vd [6]: 1.7 L/kg
AUC(0-inf) [7]: 400 ng·h/mL
